According to patent US20050065136A1, “Methods and compositions for the treatment of infertility using dilute hormone solutions” (priority 2003, published 2005):

What was measured:
Format in all cases: in vivo, human
[1] = Clinical responses of hormone allergy symptoms to intradermal administration of progesterone; conditions: dilute doses, sublingually or intradermally
Method: Patients experiencing several hormone allergy symptoms experienced relief when administered dilute doses of progesterone either sublingually or intradermally. […] The symptoms measured were irritation or pain in the neck, nose, eyes, throat, ear, skin, back, hips, upper extremities and lower extremities, headache, and shortness of breath. The patients were administered 0.5 mg of progesterone intradermally. Patients were designated as responding patients in Table 2 if they experienced any relief of the indicated symptom. Patients were also asked to estimate the amount of improvement in the symptom, an average of which is indicated as the % improvement in responding patients. In Table 3 the probability that positive results (i.e. patients responding to treatment) were due to random effects was calculated using standard statistical analysis of patient tests. It was assumed that if the treatment has no effect, there is a 50% chance that a patient will indicate a positive response and a 50% chance that a patient will indicate a negative response. From this assumption, coupled with the actual data, one may calculate the probability that positive responses are due to an actual effect of the treatment and not simply random effects. In general, results with a less than 1% chance of being random are considered highly significant. […]

[2] = Symptom relief on a 0 to 10 scale in women with acute asthma after intradermal progesterone
Method: To test this hypothesis, 142 women with acute asthma were asked to evaluate the severity of their symptoms using an eleven point scale. Ten was assigned to the most severe symptoms, while 0 was assigned to an absence of symptoms. Immediately after assessing their symptoms on this scale, patents were administered 0.5 mg of progesterone by intradermal injection. Approximately 15 to 30 seconds after the injection was administered, each patient was asked if her symptoms were worse, better, or unchanged. Each patient was also asked to rate her present symptoms on the same 0 to 10 scale. […] Of the 142 patients tested 129 (91%) positively responded to the treatment. Using the random effects calculations described in Example 3, this correlates to a less than 0.1% chance that the results are random. Thus the results may be considered highly significant.

[3] = Relief of symptoms with intradermal estrogen in patients not relieved by progesterone; conditions: 0.4 mg intradermally; many patients whose symptoms are not relieved using progesterone
[4] = 0.5 mg intradermal injection, 142 women with acute asthma, 15 to 30 seconds after injection

Compound | effectiveness in producing symptom relief as compared to several other antigens [1] | speed of relief ([1]; in most patients) | average symptomatic relief for those who reported some response ([2]; 0 to 10 scale, responders only) [points] | average symptomatic relief for all patients ([2]; 0 to 10 scale, responding and not responding patients) [points] | % of patients reporting 100% relief of asthma symptoms ([2]; 0.5 mg intradermal injection) [%] | average reduction in symptoms relative to the maximum individual patient score ([2]; 0.5 mg intradermal injection) [%] | % of patients positively responding to the treatment [2, 4] [%] | number of patients positively responding to the treatment [2, 4] | number of patients reporting 100% relief of asthma symptoms ([2]; 0.5 mg intradermal injection, of the 129 patients with symptom relief) | relief of symptoms [3]
CC(=O)[C@H]1CC[C@H]2[C@@H]3CCC4=CC(=O)CC[C@]4(C)[C@H]3CC[C@]12C [Progesterone] | most effective | very quickly | 5 | 3.4 | 28 | 62 | 91 | 129 | 40 | –
estrogen | – | – | – | – | – | – | – | – | – | experience relief
